The results in this text go back to US7514432B2, “Compounds and methods of treating cell proliferative diseases, retinopathies and arthritis” (Exonhit Therapeutics SA, priority 2003, dated 2009).

Molecules are shown by their SMILES.

The IC50 is the concentration needed to halve the response being measured.

For assay [1], the system named is MDA-MB-231. Nature of the assay: Boyden chamber migration assay, MDA-MB-231. Format: cell-based, human. Conditions: FBS as chemoattractant; 16 hours. As for the experimental part:
(§1) FIG. 4: Migration assays. (A) Wound healing assay in REF cells. 7.6 10^4 cells were plated on coverslips 48 hours before the experiment. The cells were pre-treated for 30 min. with the compounds, and then a scrape was done using a pipette tip. The scraped coverslips in treatment medium were put under a thermostated microscope coupled to a video camera. Movies were analyzed as described in material and methods, and velocity and total distance covered by the cells were evaluated. Bar graphs represent the mean±SEM of 2 to 4 experiments. (B) Boyden chamber migration assay in HMEC1, NIH3T3 and MDA-MB-231 cells. 5 10^4 to 7.5 10^4 Cells, resuspended in culture medium with or without FBS and with different compound concentrations, were seeded in the upper Boyden blind well on top of 8 μm pore-sized filters. The ability of the cells to migrate through the filter was assayed in the absence or presence of FBS in the lower Boyden chamber. After 16 hours incubation, the medium was removed and replaced with calcein-AM containing medium. After labeling, cells were washed with HBSS and fluorescence was read in a fluorescence plate reader. Fluorescence values were normalized against the fluorescence obtained for the 1% DMSO control. The data plotted are the means±SEM of 2 to 4 independent experiments.
(§2) An essential characteristic of malignant cells is their ability to migrate, invade host tissues and to produce metastases. In order to evaluate the capacity of one compound to affect the ability of tumoral cells to migrate, migration assays were performed using highly invasive tumoral cells MDA-MB-231, endothelial cells HMEC1 or fibroblastic cells NIH3T3. This assay was performed using Falcon HTS Fluoroblock inserts. Culture medium containing Fetal Bovine Serum (FBS; which is used as a chemoattractant) was added to the plate wells and 2 10^4 to 7.5 10^4 cells resuspended in medium without FBS and with 0.1% BSA were added to each insert well. The compound of interest was added to the medium in both the upper and the lower chambers. Plates were incubated for 16 hours at 37° C. Following incubation, the medium was removed from the upper chamber and the entire insert plate was transferred to a second 24-well plate containing 4 μg/ml Calcein-AM™ in medium containing 0.1% BSA. The plates were incubated for one hour at 37° C., rinsed with Hanks Buffered Saline (HBSS). Fluorescence data were collected using Fluoroskan Ascent FL fluorescence plate reader at an excitation wavelength (Ex) of 485 nm and emission wavelength (Em) of 517 nm. Only those labelled cells that passed through the Matrigel layer and the membrane were detected. Data were analyzed using the GraphPad Prism software and IM50s (dose at which 50% inhibition of cell migration is observed) were calculated.

Another assay deals with NIH 3T3. Nature of the assay: Cell viability assay (MTT), NIH 3T3. Format: cell-based, mouse. As to conditions: 10% FBS, 6-day treatment, 1% DMSO. As for the experimental part: (§3) Table 12: 6-day cell viability assay (MTT) in the presence of 10% Fetal Bovine Serum and 1% DMSO, in HMEC1, HCT116, MDA-MB-231, MCF7 and NIH3T3 cell lines. 3 10^3 to 15 10^3 cells were seeded in 48-well plates in growth medium containing 10% FBS, with or without various concentrations of test compounds. Cell cultures were fed every 3 days with the appropriate media. Cell viability was determined on day 6. Data were analyzed and IC50s were calculated from dose-response curves using GraphPad Prism. Results summarized in the tables are mean±SEM of 1 to 8 independent experiments.
(§4) Table 15: 16-hour cell viability assay (MTT) in the presence of 10% Fetal Bovine Serum and 1% DMSO, in HCT116, MDA-MB-231, NIH3T3, HepG2 and primary hepatocytes. 5 10^4 to 10 10^4 cells were seeded in 48-well plates in growth medium containing 10% FBS, with or without various concentrations of test compounds. Data were analyzed and IC50s were calculated from dose-reponse curves using GraphPad Prism. Results summarized in the tables are mean±SEM of 1 to 2 independent experiments.
(§5) In order to determine a compound's effect on cell viability, microculture tetrazolium assays (MTT) were performed as described by Carmichael et al. (1996) with modifications. Four human tumoral cell lines, namely HCT116 colon adenocarcinoma, H460 lung carcinoma, MCF-7 and MDA-MB-231 breast carcinoma cell lines, DLD1 colorectal adenocarcinoma, HeLa adenocarcinoma, HepG2 hepatocellular carcinoma. 3 immortalized but non tumorigenic cell lines, namely NIH3T3 mouse fibroblasts (American Type Culture Collection) and primary hepatocytes (Biopredic international), cultured according to their recommendations together with Human Microvasculature Endothelial Cell line HMEC1 (National Center for Infectious Diseases). Briefly, cells were seeded in 48-well plates 24 hours before drug addition. Cells were treated with 0 to 200 μM (11 concentrations) of compound solubilized in DMSO, adjusting the final concentration of DMSO to 1% in the well. 16 hours, and three or six days after treatment, 0.5 mg/ml MTT (Sigma) was added to the medium and cells were incubated for 1-5 hours at 37° C. before solubilization of formazan crystals in 100% DMSO. Absorbance was measured using a spectrophotometer at a wavelength of 550 nm. Data was analyzed using the GraphPad Prism software (GraphPad Software, Inc.), and IC50 (dose leading to 50% cell death) was calculated from the dose-response curves.

Another assay has as its system HMEC1. Nature of the assay: Cell viability assay (MTT), HMEC1. The assay is classed as cell-based, Human. As to conditions: 10% FBS; for IC50: MTT, 6-day treatment, 1% DMSO. As for the experimental part: as §3, §5
The next assay deals with NIH3T3. The experiment in a line: Boyden chamber migration assay, NIH3T3. Format: cell-based, mouse. Conditions: FBS as chemoattractant. As for the experimental part: as §1, §2
The test system of a further assay is HCT116. The experiment in a line: Cell viability assay (MTT), HCT116. The assay is classed as cell-based, human. Conditions: 1% DMSO. As for the experimental part:
as §3
(§6) Table 13: 6-day cell viability assay (MTT) in the presence of 0.5% Fetal Bovine Serum and 1% DMSO, in HCT116 and MDA-MB-231 cell lines. 7.5 10^4 to 15 10^4 cells were seeded in 48-well plates in growth medium containing 10% FBS, with or without various concentrations of test compounds. Cell cultures were fed every 3 days with the appropriate media. Cell viability was determined on day 6. Data were analyzed and IC50s were calculated from dose-response curves using GraphPad Prism. Results summarized in the tables are mean±SEM of 1 to 2 independent experiments.
(§7) Table 14: 3-day cell viability assay (MTT) in the presence of 10% Fetal Bovine Serum and 1% DMSO, in DLD1, HCT116, MDA-MB-231, MCF7 and HeLa cells. 7.5 10^3 to 1.5 10^4 cells were seeded in 48-well plates in growth medium containing 10% FBS, with or without various concentrations of test compounds. Data were analyzed and IC50s were calculated from dose-response curves using GraphPad Prism. Results summarized in the tables are mean±SEM of 1 to 7 independent experiments.
as §4, §5

The next assay relates to DLD1. Nature of the assay: Cell viability assay (MTT), DLD1. The assay is classed as cell-based. Conditions: Homo sapiens, DLD-1, 72 h, 10% FBS, 3-day treatment, 1% DMSO. As for the experimental part:
as §7, §5

The test system of another assay is MCF7. The experiment in a line: Cell viability assay (MTT), MCF7. As to conditions: Homo sapiens, MCF7, 144 h, 10% FBS, 6-day treatment, 1% DMSO. Format: cell-based. As for the experimental part: as §3, §7, §5
Assay [2] deals with MDA-MB-231. Nature of the assay: Cell viability assay (MTT), MDA-MB-231. Format: cell-based, human. Conditions: 10% FBS, 6-day treatment, 1% DMSO, read-out: IC50 μM, MDA-MB-231. As for the experimental part:
as §3, §6, §7, §4, §5

Another assay has as its system HMEC-1 cells. The experiment in a line: Tubule formation (tubulogenesis) assay on Matrigel. The assay is classed as cell-based, Human. As for the experimental part: FIG. 5: Tubulogenesis assay (number of junctions). 2 10^4 Cells were plated on Matrigel-coated wells as described in the material and methods. Pictures of each well were taken after a 7-hours incubation. The “number of junctions” parameter was quantitated using the AngioSys software and data were analyzed using GraphPad Prism for IT50 calculation. Values represent the mean±SEM of 2 to 30 independent experiments.
The endothelial cell tube formation assay, or tubulogenesis assay, is an in vitro assay that is widely accepted to accurately reflect number of terminal stages of the angiogenic process such as attachment, migration and differentiation into tubular structures. In this model, endothelial cells are cultured on a monolayer of reconstituted basement membrane components (Matrigel) and form, in a few hours, capillary-lilke structure. Therefore, this system is a useful and powerful tool for rapidly screening anti-angiogenic agents by monitoring inhibition of endothelial cells morphogenesis on extracellular matrix.
HMEC-1 cell line is cultured in MCDB-131 medium (Sigma) supplemented with 15% FBS, 10 ng/ml recombinant human epidermal growth factor (Invitrogen) and 1 μg/ml hydrocortisone. Cells are cultured to 70-80% confluence. A 96-well plate was coated with Matrigel® Basement Membrane Matrix (Becton Dickinson). 2 10^4 HMEC-1 cells were seeded into each well. The test or control compounds were diluted in DMSO and added to the coated plate. The plate was subsequently incubated for 6 to 8 hours at 37° C., 5% CO2 atmosphere to allow tubule formation. The cells were then incubated with 1.25 μg/ml Calcein AM for 15 minutes at 37° C., 5% CO2. Pictures of each well were taken using a fluorescent microscope and a digital camera (Nikon Coolpix 990). Images were analysed using AngioSys software (TCS Cellworks) that allows quantification of the total tubule length and of the number of junctions, two parameters representative of tubule formation/disruption. Data was analyzed using the GraphPad Prism software, and IT50s (dose leading to 50% inhibition of tubulogenesis) was calculated.

Where [3] appears, read: Homo sapiens, MDA-MB-231, 144 h.
Where [4] appears, read: Homo sapiens, HCT-116, 144 h, 10% FBS, 6-day treatment.

For the compound `CN1CCN(Cc2cc(=O)c(OCCCCCSc3ccnc4cc(C(F)(F)F)ccc34)co2)CC1` [EHT 7365, 2-(4-Methyl-piperazin-1-ylmethyl)-5-[5-(7-trifluoromethyl-quinolin-4-ylsulfanyl)-pentyloxy]-4H-pyran-4-one], the IC50 with MDA-MB-231 [1] was 3.9 ± 0.8 µM; in the assay on NIH 3T3 (Mus musculus, NIH3T3, 144 h), 6.5 µM; with HMEC1, 8.3 µM; in the assay with NIH3T3 (16 hours), 6.1 ± 1.1 µM; in the assay with HCT116 (10% FBS, 6-day treatment) it was 5.4 µM.
With `O=c1[nH]cc(F)c(=O)[nH]1` [5FU, 5-FluoroUracile, reference compound], the IC50 in the assay with HCT116 (Homo sapiens, HCT-116, 72 h, 10% FBS, 3-day treatment) was 7.83 µM; in the assay with DLD1, 5.44 µM.
For the compound `CCN(CC)C(=O)N1CCN(Cc2cc(=O)c(OCCCCCSc3ccnc4cc(C(F)(F)F)ccc34)co2)CC1` [EHT 5743, 4-((5-(5-(7-(Trifluoromethyl)quinolin-4-ylthio)pentyloxy)-4-oxo-4H-pyran-2-yl)methyl)-N,N-diethylpiperazine-1-carboxamide], the IC50 in the assay on NIH 3T3 (Mus musculus, NIH3T3, 144 h) is 2.4 µM; with HMEC1 (Homo sapiens, HMEC-1, 144 h), below 10 µM; with HMEC1 it was 8 µM; in the assay with MCF7, 1.2 µM; with MDA-MB-231 [2], 8.8 µM; in the assay on MDA-MB-231 [2] (setting [3]) it was below 9 µM. Also, the “difference of activity in HMEC1 cells as compared to HCT116 cells” value in the assay with HMEC1 (MTT 6 days, compounds most active in HCT116) was determined as 20 fold.
For `O=c1cc(CN2CCOCC2)occ1OCCCCCSc1ccnc2cc(C(F)(F)F)ccc12` [EHT 7168, 2-Morpholin-4-ylmethyl-5-[5-(7-trifluoromethyl-quinolin-4-ylsulfanyl)-pentyloxy]-4H-pyran-4-one], the IC50 in the assay on NIH 3T3 was found to be 12.7 µM; with HMEC1 it was 25.2 µM; in the assay on MDA-MB-231 [2], 9.8 µM; in the assay with NIH3T3 (Mus musculus, NIH3T3, 16 h), 16.4 ± 3.4 µM; with HCT116 (10% FBS, 6-day treatment), 4.9 µM.
Consider `Cc1[nH]c(/C=C2\C(=O)Nc3ccccc32)c(C)c1CCC(=O)O` [SU-6668, reference compound], for which the IC50 is 35.7 µM in the assay on NIH 3T3 (Mus musculus, NIH3T3, 144 h); 36 µM in the assay on HMEC1 (Homo sapiens, HMEC-1, 144 h); 22.5 µM with MDA-MB-231 [2] (setting [3]); 18.9 µM with HCT116 (setting [4]). In addition, in the assay on HMEC-1 cells (VEGF and FGF free conditions), the “potency in tubulogenesis assay” value is given as “weakly potent”.
For `O=c1cc(CN2CCOCC2)occ1OCc1ccc(CSc2ccnc3cc(C(F)(F)F)ccc23)cc1` [EHT 2218, 5-((4-((7-(Trifluoromethyl)quinolin-4-ylthio)methyl)phenyl)methoxy)-2-(morpholinomethyl)-4H-pyran-4-one], the IC50 is 26 µM in the assay with NIH 3T3 (Mus musculus, NIH3T3, 144 h); 30.8 µM with HMEC-1 cells (Homo sapiens, HMEC-1, HMEC1 on Matrigel, 6 to 8 hours, read-out: IC50, tubulogenesis (number of junctions)); 19.3 µM with HMEC1 (Homo sapiens, HMEC-1, 144 h); 5 µM with MDA-MB-231 [2]; below 9 µM in the assay on MDA-MB-231 [2] (setting [3]); 3.7 µM with HCT116 (10% FBS, 6-day treatment). Moreover, the half-inhibitory concentration (IC50) in the assay with HCT116 (Homo sapiens, HCT-116, 144 h, 0.5% FBS, 6-day treatment) is 3.3 µM; in the assay with HCT116 (setting [4]) it was below 4 µM. In addition, the “fold more active than reference compound CAI in tubulogenesis” value in the assay with HMEC-1 cells (HMEC1 on Matrigel) came out at 4 fold.
